Experimental findings from patent EP4667464A1 (Cyrus Therapeutics Inc., priority 2023, dated 2024) are described below.

For assay [1], the target named is T1, SOS1 (Homo sapiens, UniProt Q07889).
T1 construct: HIS-SOS1cat (160 nM; Cytoskeleton, US); His (N); purchased Cytoskeleton
T1 sequence (Q07889 564-1049 limits assumed): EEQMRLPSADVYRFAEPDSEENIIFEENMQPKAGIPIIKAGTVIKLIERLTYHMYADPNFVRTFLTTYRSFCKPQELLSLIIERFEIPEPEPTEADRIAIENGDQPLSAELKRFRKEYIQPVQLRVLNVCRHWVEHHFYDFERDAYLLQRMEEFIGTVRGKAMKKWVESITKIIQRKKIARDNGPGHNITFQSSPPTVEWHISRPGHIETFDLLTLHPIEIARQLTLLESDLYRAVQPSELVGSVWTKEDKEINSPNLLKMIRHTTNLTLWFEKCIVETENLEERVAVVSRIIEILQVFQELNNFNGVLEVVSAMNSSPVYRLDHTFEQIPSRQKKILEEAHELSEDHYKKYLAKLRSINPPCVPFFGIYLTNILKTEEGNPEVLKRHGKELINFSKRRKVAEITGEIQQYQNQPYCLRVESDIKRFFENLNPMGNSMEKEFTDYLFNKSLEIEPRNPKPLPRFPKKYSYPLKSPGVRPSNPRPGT
In words: SOS-catalyzed nucleotide exchange assay (HTRF, SOS1-mediated GTP loading of KRAS G12D). The format is biochemical. On the technique in general: In TR-FRET formats the signal depends on donor and acceptor labels being close together.

Assay [2] has as its target T2, KRAS G12C::SOS1 (Homo sapiens, UniProt Q07889).
T2 construct: purchased CISBIO 64KRASG12PEH
T2 sequence (Q07889 1-1333): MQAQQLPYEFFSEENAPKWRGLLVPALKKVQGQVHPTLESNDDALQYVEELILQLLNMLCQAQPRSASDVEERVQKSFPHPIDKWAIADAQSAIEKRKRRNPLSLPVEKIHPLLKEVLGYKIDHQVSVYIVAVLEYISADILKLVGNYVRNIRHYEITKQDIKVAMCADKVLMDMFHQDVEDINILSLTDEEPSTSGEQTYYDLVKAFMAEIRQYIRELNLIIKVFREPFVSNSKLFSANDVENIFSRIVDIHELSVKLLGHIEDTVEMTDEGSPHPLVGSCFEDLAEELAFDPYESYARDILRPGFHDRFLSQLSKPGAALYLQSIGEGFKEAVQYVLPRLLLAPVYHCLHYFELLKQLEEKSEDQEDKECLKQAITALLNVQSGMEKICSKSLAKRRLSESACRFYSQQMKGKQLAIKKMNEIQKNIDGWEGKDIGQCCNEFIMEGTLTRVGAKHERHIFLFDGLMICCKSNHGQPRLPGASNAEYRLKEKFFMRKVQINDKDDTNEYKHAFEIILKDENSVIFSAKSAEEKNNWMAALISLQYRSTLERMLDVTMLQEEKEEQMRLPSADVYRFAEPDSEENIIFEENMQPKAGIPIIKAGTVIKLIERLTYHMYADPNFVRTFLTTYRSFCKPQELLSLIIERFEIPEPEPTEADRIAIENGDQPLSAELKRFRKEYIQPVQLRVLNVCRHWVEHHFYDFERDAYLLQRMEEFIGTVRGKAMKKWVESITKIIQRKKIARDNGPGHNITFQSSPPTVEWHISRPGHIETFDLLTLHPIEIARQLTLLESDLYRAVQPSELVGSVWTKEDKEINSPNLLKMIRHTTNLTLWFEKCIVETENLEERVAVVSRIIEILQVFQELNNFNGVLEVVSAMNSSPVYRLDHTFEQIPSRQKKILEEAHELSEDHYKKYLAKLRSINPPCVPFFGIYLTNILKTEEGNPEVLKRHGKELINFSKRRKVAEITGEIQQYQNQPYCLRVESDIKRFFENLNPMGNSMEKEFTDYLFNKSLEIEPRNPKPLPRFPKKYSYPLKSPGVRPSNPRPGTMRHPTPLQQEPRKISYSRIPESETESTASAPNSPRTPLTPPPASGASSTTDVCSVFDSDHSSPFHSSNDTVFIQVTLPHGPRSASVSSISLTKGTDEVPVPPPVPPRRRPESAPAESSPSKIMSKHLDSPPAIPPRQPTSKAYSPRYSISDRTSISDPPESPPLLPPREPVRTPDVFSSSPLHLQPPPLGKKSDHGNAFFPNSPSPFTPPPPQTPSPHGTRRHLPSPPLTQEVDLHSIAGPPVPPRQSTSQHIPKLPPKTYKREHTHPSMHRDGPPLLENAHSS
In words: KRAS G12C::SOS1 protein-protein interaction (PPI) inhibition assay (HTRF). The format is binding. In outline:
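Compounds, at eight 3-fold dilutions from 3 µM, were mixed with GTP-loaded Tag1-KRAS G12C, Tag2-SOS1 and a terbium-cryptate donor plus XL665 acceptor antibody pair. After 2 h at room temperature, time-resolved FRET reported the KRAS–SOS1 interaction.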

Setting [3] is: GST-KRAS G12D, HIS-SOS1cat, compound 128 pM to 10 µM, read-out: SOS-catalyzed nucleotide exchange assay.
The mark [4] stands for this setting: 8 concentrations from 3 µM, three replicates, read-out: KRAS G12C::SOS1 PPI.

Where two headings read alike, the source gives them in different places.

In the case of `C[C@@H](NC(=O)c1ccc(=O)n(-c2cncc(-c3cnnn3C3CC3)c2)c1)c1cccc(C(F)(F)F)c1F` [Example 1-68, 1-[5-(1-cyclopropyl-1H-1,2,3-triazol-5-yl)-3-pyridyl]-N-[(1R)-1-[2-fluoro-3-(trifluoromethyl)phenyl]ethyl]-2-oxo-2H-[1,3'-bipyridine]-5-carboxamide], the IC50 in assay [1] (setting [3]) and in assay [2] (setting [4]) was less than 50 nM in each case.

Consider `C[C@@H](NC(=O)c1ccc(=O)n(-c2cncc(-c3cnnn3C)c2)n1)c1cccc(C(F)(F)CO)c1Cl` [Example 1-3, N-[(1R)-1-[2-chloro-3-(1,1-difluoro-2-hydroxy-ethyl)phenyl]ethyl]-1-[5-(3-methyltriazol-4-yl)-3-pyridyl]-6-oxo-pyridazine-3-carboxamide], for which the IC50 in assay [1] (setting [3]) and in assay [2] (setting [4]) was 50 to 150 nM throughout.

With `C[C@@H](NC(=O)c1ccc(=O)n(-c2cncc(-c3cnnn3[C@H]3CC3(F)F)c2)n1)c1cccc(C(F)(F)F)c1F` [Example 23, 1-[5-[3-[(1S)-2,2-difluorocyclopropyl]triazol-4-yl]-3-pyridyl]-N-[(1R)-1-[2-fluoro-3-(trifluoromethyl)phenyl]ethyl]-6-oxo-pyridazine-3-carboxamide], the IC50 in assay [1] and in assay [2] was 50 to 150 nM each time.

On to `[2H]C([2H])([2H])[C@@H](NC(=O)c1ccc(=O)n(-c2cncc(-c3cnnn3C([2H])([2H])[2H])c2)n1)c1cccc(C(F)(F)F)c1F` [Example 1-36, N-{(R)-1-[2-fluoro-3-(trifluoromethyl)phenyl]-ethyl-(2,2,2-trideuterio)}-1-(5-{1-[trideuteriomethyl]-1H-1,2,3-triazol-5-yl}-3-pyridyl)-6-oxo-1,6-dihydropyridazine-3-carboxamide], for which the values for the IC50 in assay [1] (setting [3]) and in assay [2] (setting [4]) were less than 50 nM and 50 to 150 nM, respectively.

In the case of `[2H]C([2H])([2H])[C@@H](NC(=O)c1ccc(=O)n(-c2cncc(-c3cnnn3C)c2)n1)c1cccc(C(F)(F)F)c1F` [Example 1-35, N-{(R)-1-[2-fluoro-3-(trifluoromethyl)phenyl]-ethyl-(2,2,2-trideuterio)}-1-[5-(1-methyl-1H-1,2,3-triazol-5-yl)-3-pyridyl]-6-oxo-pyridazine-3-carboxamide], the IC50 in assay [1] (setting [3]) and in assay [2] (setting [4]) was 50 to 150 nM in each case.

`C[C@@H](NC(=O)c1ccc(=O)n(-c2cncc(-c3cnnn3C3CCN(C)CC3)c2)n1)c1cccc(C(F)(F)F)c1F` [Example 20-6, (R)-N-(1-(2-fluoro-3-(trifluoromethyl)phenyl)ethyl)-1-(5-(1-(1-methylpiperidin-4-yl)-1H-1,2,3-triazol-5-yl)pyridin-3-yl)-6-oxo-1,6-dihydropyridazine-3-carboxamide]: the IC50 in assay [1] (setting [3]) and in assay [2] (setting [4]) was less than 50 nM in each case.

Take `C[C@@H](NC(=O)c1ccc(=O)n(-c2cncc(-c3cnnn3C3CCC3)c2)n1)c1cccc(C(F)(F)CO)c1F` [Example 1-55, 1-[5-(1-cyclobutyl-1H-1,2,3-triazol-5-yl)-3-pyridyl]-N-[(1R)-1-[3-(1,1-difluoro-2-hydroxy-ethyl)-2-fluoro-phenyl]ethyl]-6-oxo-pyridazine-3-carboxamide]: the IC50 in assay [1] (setting [3]) and in assay [2] (setting [4]) was less than 50 nM in each case.

As for `[2H]C([2H])(O)C(F)(F)c1cccc([C@@H](C)NC(=O)c2ccc(=O)n(-c3cncc(-c4cnnn4C4CNC4)c3)n2)c1F` [Example 20-3, (R)-1-(5-(1-(azetidin-3-yl)-1H-1,2,3-triazol-5-yl)pyridin-3-yl)-N-(1-(3-(1,1-difluoro-2-hydroxyethyl-2,2-dideuterio)-2-fluorophenyl)ethyl)-6-oxo-1,6-dihydropyridazine-3-carboxamide], the IC50 in assay [1] and in assay [2] was less than 50 nM each time.

`C[C@@H](NC(=O)c1ccc(=O)n(-c2cnnc(-c3cnnn3C)c2)n1)c1cccc(C(F)F)c1F` [Example 5, N-[(1R)-1-[2-fluoro-3-(difluoromethyl)phenyl]ethyl]-1-[6-(3-methyltriazol-4-yl)pyridazin-4-yl]-6-oxo-pyridazine-3-carboxamide]: the IC50 in assay [1] and in assay [2] was more than 150 nM each time.

In the case of `[2H]C([2H])([2H])[C@@H](NC(=O)c1ccc(=O)n(-c2cncc(-c3cnnn3C3CC3)c2)n1)c1cccc(C(F)(F)CO)c1F` [Example 1-60, 1-[5-(1-cyclopropyl-1H-1,2,3-triazol-5-yl)-3-pyridyl]-6-oxo-N-[(1R)-2,2,2-trideuterio-1-[3-(1,1-difluoro-2-hydroxy-ethyl)-2-fluoro-phenyl]ethyl]pyridazine-3-carboxamide], the IC50 in assay [1] (setting [3]) and in assay [2] (setting [4]) was less than 50 nM in each case.

For `C[C@@H](NC(=O)c1cc(C#N)c(=O)n(-c2cncc(-c3cnnn3C)c2)n1)c1cccc(C(F)F)c1F` [Example 3-1, 5-cyano-N-[(1R)-1-[3-(difluoromethyl)-2-fluorophenyl]ethyl]-1-[5-(1-methyl-1H-1,2,3-triazol-5-yl)pyridin-3-yl]-6-oxo-1,6-dihydropyridazine-3-carboxamide], the IC50 in assay [1] (setting [3]) is 50 to 150 nM; in assay [2] (setting [4]), more than 150 nM.

Consider `C[C@@H](NC(=O)c1ccc(=O)n(-c2cncc(-c3cnnn3[C@H]3CCNC3)c2)n1)c1cccc(C(F)(F)F)c1F` [Example 20-5, N-[(1R)-1-[2-fluoro-3-(trifluoromethyl)phenyl]ethyl]-6-oxo-1-[5-[3-[(3S)-pyrrolidin-3-yl]triazol-4-yl]-3-pyridyl]pyridazine-3-carboxamide], for which the IC50 in assay [1] and in assay [2] was 50 to 150 nM in each case.

As to `C[C@@H](NC(=O)c1cc(C#N)c(=O)n(-c2cc(-c3cnnn3C3CC3)cnc2F)n1)c1cccc(C(F)(F)F)c1F` [Example 3-4, 5-cyano-N-[(1R)-1-[2-fluoro-3-(trifluoromethyl)phenyl]ethyl]-1-(5-(1-cyclopropyl-1H-1,2,3-triazol-5-yl)-2-fluoropyridin-3-yl)-6-oxo-1,6-dihydropyridazine-3-carboxamide], the IC50 in assay [1] (setting [3]) and in assay [2] (setting [4]) was 50 to 150 nM each time.

`C[C@@H](NC(=O)c1ccc(=O)n(-c2cncc(-c3cnnn3C3CC3)c2)n1)c1cc(N)cc(C(F)(F)F)c1` [Example 1-56, 1-[5-(1-cyclopropyl-1H-1,2,3-triazol-5-yl)-3-pyridyl]-6-oxo-N-[(1R)-1-[3-amino-5-(trifluoromethyl)phenyl]ethyl]pyridazine-3-carboxamide]: the IC50 in assay [1] (setting [3]) and in assay [2] (setting [4]) was less than 50 nM in each case.

Regarding `CCc1cc(C(=O)N[C@H](C)c2cccc(C(F)(F)CO)c2F)nn(-c2cncc(-c3cnnn3C(C)C)c2)c1=O` [Example 1-41, N-{(R)-1-[3-(1,1-difluoro-2-hydroxyethyl)-2-fluorophenyl]ethyl}-5-ethyl-1-[5-(1-isopropyl-1H-1,2,3-triazol-5-yl)-3-pyridyl]-6-oxo-1,6-dihydropyridazine-3-carboxamide], the IC50 in assay [1] (setting [3]) and in assay [2] (setting [4]) was less than 50 nM each time.
